Experimental data: patent US9676997B2, “Compositions and methods for stabilizing luminogenic substrates” (Promega Corporation, priority 2014, dated 2017)
Read-outs that look alike come from different tables or passages of the source.

Experiments:
[1] = Stability of 2.3 mM furimazine at 37° C. in the dark with or without 200 mM thionucleoside, luminescence with NANOLUC enzyme; assay type: physicochemical; conditions: 50% propylene glycol:50% ethanol
Method: Specifically, a stock solution of furimazine in 50% propylene glycol:50% ethanol (v/v) was prepared, in which the final concentration of furimazine by absorbance was 4.6 mM. The furimazine stock solution was then diluted 1:1 in 50% propylene glycol:50% ethanol (v/v) to create a control solution without the additives ATT, TAK-0014 and TAK-0002 (i.e., “no additive furimazine” control) and containing 2.3 mM furimazine. 400 mM stock solutions of ATT, TAK-0014 and TAK-0002 were prepared in 50% propylene glycol:50% ethanol (v/v). Each of the ATT, TAK-0014 and TAK-0002 stock solutions was then diluted 1:1 in the 4.6 mM furimazine stock solution to yield solutions containing 200 mM ATT, TAK-0014 or TAK-0002, and 2.3 mM furimazine.
Each sample was separated into multiple amber tubes and incubated at 37° C. in a dark incubator (i.e., in the absence of light). Aliquots were taken from each sample at various time points and stored at −20° C. in the dark (i.e., in the absence of light) until all time points were collected.
To measure luminescence in the aliquots, each aliquot was diluted 1:50 in buffer (NANOGLO buffer, Promega Corporation) to yield 46 μM furimazine. These diluted aliquots were further diluted 1:10 in buffer (NANOGLO buffer, Promega Corporation) to yield 4.6 μM furimazine. 504 of each dilution (i.e., the twice diluted (0.1) aliquots) was mixed with 504, of CO2-independent media+10% fetal bovine serum (FBS) and 0.4 ng/mL luminogenic enzyme (NANOLUC enzyme, Promega Corporation). Luminescence was measured on a luminometer (GLOMAX Multi Plus luminometer, Promega Corporation). Relative light units (RLUs) were normalized for each time point by the RLU value at the 0 days time point. The percent activity from the 0 days time point (i.e., t=0) was plotted against time (days) for each sample as shown in FIG. 15A. In FIG. 15A, B-ATT denoted TAK-0002 and E-ATT denoted TAK-0014.
Error in Table 15 was the standard error from a regression calculation and Fz denoted furimazine, B-ATT denoted TAK-0002, and E-ATT denoted TAK-0014.

[2] = Stability of 1.25 mM coelenterazine in 50% ethanol and 50% propylene glycol with or without 225 mM ATT, HPLC and Arrhenius plots; assay type: physicochemical; conditions: for half-life at 1.25 mM: solution of 50% ethanol and 50% propylene glycol
Method: The stability of coelenterazine in the presence and absence of ATT was measured over time at different temperatures. Specifically, 1.25 mM coelenterazine was present in a solution of 50% ethanol and 50% propylene glycol (i.e., the solution without ATT) or a solution of 50% ethanol and 50% propylene glycol with 225 mM ATT (i.e., the solution with ATT). These two solutions were incubated at −20° C., room temperature (RT), 40° C., or 60° C. and analyzed at 0 days, 1 day, 3 days, 7 days, 15 days, and 30 days.
Following incubation, high performance liquid chromatography (HPLC) was utilized to identify the components of the respective solutions at each time point. Specifically, an Agilent 1100 HPLC instrument was used and equipped with a quaternary pump, thermostatted autosampler and column compartment, and a G1311B diode-array detector. The column used was a Synergi-MAX-RP (Phenomenex, Torrance, Calif.) 100 AÅ 50×4.6 2.5 μm. The run on the HPLC was a gradient run with 0.1% TFA in water and acetonitrile. Absorbance was measured at 262 nanometers (nm). Standards of coelenterazine and its known degradants were run to confirm both the retention time and absorbance trace. 5 μl of each solution was injected and the retention time of coelenterazine was 3.9 minutes at room temperature.
The results of the HPLC analysis are shown below in Tables 1 and 2 and FIGS. 1A and 1B, in which the values are reported as relative peak area percentage at 262 nm (i.e., the lamba max of the substrate). […] In each of FIGS. 1A and 1B, diamond is 1.25 mM coelenterazine incubated over time with or without 225 mM ATT, respectively, at −20° C., triangle is 1.25 mM coelenterazine incubated over time with or without 225 mM ATT, respectively, at room temperature (RT), star is 1.25 mM coelenterazine incubated over time with or without 225 mM ATT, respectively, at 40° C., and cross is 1.25 mM coelenterazine incubated over time with or without 225 mM ATT, respectively, at 60° C.
From the HPLC analysis, the half-life of coelenterazine in the presence of ATT at 40° C. and 60° C. was calculated to be 23 days and 5 days, respectively, while the half-life of coelenterazine in the absence of ATT at 40° C. and 60° C. was calculated to be 9.5 days and 2 days, respectively (see Table 3 below).
Additionally, Arrhenius plots were generated for coelenterazine in the presence and absence of ATT to calculate the half-life of coelenterazine at various temperatures. The Arrhenius equation is as follows: […]
In FIG. 7, the slope was −8636.59, the intercept was 24.1199, and R^2 was 0.9983.
In FIG. 8, the slope was −7382.51, the intercept was 21.2598, and R^2 was 0.9570.

[3] = decomposition of coelenterazine

For `O=c1[nH]c(=S)[nH]nc1Cc1ccccc1` [TAK-0002, 6-benzyl-3-sulfanyl-1,2,4-triazin-5-ol], the “stabilization of furimazine against decomposition in the absence of light” value [1] was “stabilized furimazine against decomposition in the absence of light”.

In the case of `O=c1c(Cc2ccc(O)cc2)nc2c(Cc3ccccc3)[nH]c(-c3ccc(O)cc3)cn1-2` [Coelenterazine (27-957-28), coelenterazine], the “relative peak area percentage at 262 nm” value ([2]; 40° C., 0 days) is reported as 96.5%, the “relative peak area percentage at 262 nm” value ([2]; 40° C., 1 day) is reported as 92.2% and the “relative peak area percentage at 262 nm” value ([2]; 40° C., 3 days) is reported as 84.9%. For the same compound, the “relative peak area percentage at 262 nm” value ([2]; 40° C., 15 days) was 12.6%, the “relative peak area percentage at 262 nm” value ([2]; 60° C., 0 days) was 96.5% and the “relative peak area percentage at 262 nm” value ([2]; 60° C., 1 day) was 79.6%. For the same compound, the “relative peak area percentage at 262 nm” value ([2]; 60° C., 3 days) was 36.8%, the “relative peak area percentage at 262 nm” value ([2]; RT, 0 days) was 96.5% and the “relative peak area percentage at 262 nm” value ([2]; RT, 1 day) was 96.1%. The “relative peak area percentage at 262 nm” value ([2]; RT, 3 days) was 94.0%, the “relative peak area percentage at 262 nm” value ([2]; RT, 7 days) was 91.0% and the “relative peak area percentage at 262 nm” value ([2]; RT, 15 days) was 87.4%. For the same compound, the “relative peak area percentage at 262 nm” value ([2]; RT, 30 days) was 57.7%, the Arrhenius plot intercept [2, 3] was 21.2598 and the Arrhenius plot slope [2, 3] was −7382.51. The half-life at 1.25 mM ([2]; 20° C., read-out: T1/2 Calculated from Arrhenius (converted)) was 852 h, the half-life at 1.25 mM ([2]; 40° C., read-out: T1/2 Calculated from Arrhenius (converted)) was 170 h and the half-life at 1.25 mM ([2]; 40° C., read-out: T1/2 Estimated from graph (converted)) was 228 h. For the same compound, the half-life at 1.25 mM ([2]; 60° C., read-out: T1/2 Calculated from Arrhenius (converted)) was 40.8 h, the half-life at 1.25 mM ([2]; 60° C., read-out: T1/2 Estimated from graph (converted)) was 48 h and the half-life at 1.25 mM ([2]; −20° C., read-out: T1/2 Calculated from Arrhenius (converted)) was 46500 h. The “relative peak area percentage at 262 nm” value ([2]; −20° C., 0 days) was 96.5%, the “relative peak area percentage at 262 nm” value ([2]; −20° C., 1 day) was 97.2% and the “relative peak area percentage at 262 nm” value ([2]; −20° C., 3 days) was 96.4%. The “relative peak area percentage at 262 nm” value ([2]; −20° C., 7 days) was 96.5%, the “relative peak area percentage at 262 nm” value ([2]; −20° C., 15 days) was 96.5% and the “relative peak area percentage at 262 nm” value ([2]; −20° C., 30 days) was 86.2%.

For `CCc1n[nH]c(=S)[nH]c1=O` [TAK-0014], the “stabilization of furimazine against decomposition in the absence of light” value [1] was “stabilized furimazine against decomposition in the absence of light”.
